The test deals with oral bacteria. Kind of test: pH of glucose solution incubated with oral bacteria (salivary sediment) and test substance. It counts as cell-based. The settings on record: for pH rising to (pH rise after the drop) / pH drop to (lowest pH reached): salivary sediment 16.7% (v/v), peptide 3.3 mM; for pH rising to (pH rise after the drop) / pH drop to (lowest pH reached) / pH: glucose 2.8 mM; for pH rising to (pH rise after the drop): measured through the fourth hour; for pH drop to (lowest pH reached): pH starts slightly above 7; for pH: substance 3.3 mM final, 37° C. Here is the method: Experiments were performed in vitro using supernatant saliva. The saliva was obtained from random donors whose salivary secretions were paraffin block stimulated. The saliva donations were pooled before and after sediment removal.
Four sets of three 10×75 mm test tubes were provided with 0.2 ml of 8.4 mM (millimolar) of aqueous glucose solution. Set I was provided with 0.2 ml of pooled supernatant saliva. Set II was provided with 0.2 ml of 9.9 mM of the peptide glycine-glycine-arginine. Set III was provided with 0.2 ml of 9.9 mM arginine. Set IV was provided with 0.2 ml of distilled water. Sequentially 0.2 ml of a 50:50 aqueous suspension of oral bacteria was added to each test tube. The concentration of the peptide in the combined composition was 3.3 mM. The prepared test tubes were kept at 37° C. in a water bath. pH readings were taken at 0 time when the bacteria were added and at 15, 30, 45, 60, 90, 120, 180 and 240 minutes.
The tests were carried out under the same conditions as Sets I-IV. The salivary sediment was present in an amount of 16.7% (v/v), glucose 2.8 mM and the peptide 3.3 mM in the final composition.
Duplicate runs without peptide were run parallel to the others as a double check. […] Measurement continues through the fourth hour.

Where [1] appears, read: time 0 minutes (bacteria added).

Where a SMILES comes first, the peptide text is derived from it.

For `N=C(N)NCCC[C@H](N)C(=O)O.NCC(=O)O.NCC(=O)O` [Gly--Gly--Arg, glycine-glycine-arginine], the “pH rising to (pH rise after the drop)” value was found to be 7.5 and the “pH drop to (lowest pH reached)” value amounted to 5.5. Also, under setting [1], the pH stood at 7.4. Besides, the pH (time 15 minutes) came out at 6.8. Also, under “time 30 minutes”, the pH was determined as 6.6. Moreover, where the note is “time 45 minutes”, the pH was determined as 6.4. Where the note is “time 60 minutes”, this molecule returned a pH of 6.6. The molecule further had a pH (time 90 minutes) of 6.6. Where the note is “time 120 minutes”, this molecule came in with a pH of 6.7. For the same molecule, the pH (time 180 minutes) came to 7.2. The pH (time 240 minutes) worked out at 7.6.

For `N=C(N)NCCC[C@H](NC(=O)[C@H](CCCCN)NC(=O)CNC(=O)CN)C(=O)O` [Gly--Gly--Lys--Arg, H-glycine-glycine-lysine-arginine-OH] (H-GGKR-OH), the “pH rising to (pH rise after the drop)” value was found to be 8.4 and the “pH drop to (lowest pH reached)” value stood at 6.4. Also, the “effectiveness as pH rise factor” value (synthesized peptide) was “proven effective”.

As to `N=C(N)NCCC[C@H](N)C(=O)O` [Set III, arginine, reference compound], the pH is 7.3 under setting [1]; 5.8 (time 15 minutes); 5.4 (time 30 minutes); 5.2 (time 45 minutes); 4.9 (time 60 minutes); 5.0 (time 90 minutes). Also, the pH by setting is: (time 120 minutes) 5.0; (time 180 minutes) 5.3; (time 240 minutes) 5.8.

The values are drawn from patent USRE31181E, “Means and method for improving natural defenses against caries” (priority 1980, dated 1983).
